Experimental data reported in paper PMC6222847, “Application of HPCCC Combined with Polymeric Resins and HPLC for the Separation of Cyclic Lipopeptides Muscotoxins A–C and Their Antimicrobial Activity” (Molecules : A Journal of Synthetic Chemistry and Natural …, 2018).
In brackets after ≈: the same amount, converted by molar mass. *1 amine or outer side, *2 acyl side, *3 side chain or, on linkers, in order; H or OH if unused. Where a SMILES comes first, the peptide text is derived from it. [ ]: non-standard residue; d: D form. X1 = CCCCCC(O)CC(N[*:1])C(O)C(=O)[*:2]; d(aIle) = CC[C@H](C)[C@@H](N)C(=O)O; Dhb = C/C=C(\N)C(=O)O

Key:
[1] = Partition coefficient (K) in two-phase HPCCC solvent systems; format: physicochemical; conditions: 2 mg extract in 2 mL (1 mL per phase), HPLC-ESI-HRMS
Description: When working with HPCCC, the search for a proper two-phase solvent system has been informed to represent the major part of the work involved in the HPCCC separation. An appropriate two-phase solvent system for HPCCC has to provide a good partition coefficient (0.5 ≤ K ≤ 2.5) for the target compound. […] Additionally, for achieving a good resolution between two closely eluting peaks, the separation factor (α) between the two compounds (α = K2/K1, K2 > K1) should be greater than 1.5 [14, 26]. It is well described that compounds with smaller K values show a poor resolution because they elute closer to the solvent front. On the contrary, those compounds with larger K value are better separated but elute as wider peaks and at later elution times. In the present study, the capacity of different two-phase solvent systems (Table 1) to provide suitable K values of the compounds 1–3 was investigated. The K value is frequently estimated by using HPLC with UV detection, which is calculated by dividing the peak area of the target compound in the upper phase by that of the peak area of the same target compound in the lower phase. However, given that UV chromatogram provided insufficient peak areas for minor muscotoxins, the MS detector was thus used to estimate the K values. By using this approach, the peak area of the molecular ions corresponding to the target compounds were selectively monitored from the base peak chromatogram. As presented in the Table 1, the solvent system 10 (n-hexane, ethyl acetate, ethanol, and water in a ratio of 1:5:1:5) gave suitable K values and a proper separation factor (α) for compounds 2 and 3, as well as a short settling time. […] The improvement of the K value of compound 1 could be achieved by finding out a new solvent system or by modifying the composition of the already selected solvent system. In the present study, the system 10 was acidified by adding acetic acid leading to the system 11 (n-hexane, ethyl acetate, ethanol, water, and acetic acid, 1:5:1:5:1). […] Although the partition coefficients of the target compounds in systems 10 and 11 are strongly correlated, the system 10 ensured a sufficient selectivity (α = 1.5) between the compounds 2 and 3. […] In HPCCC, it is very well established that when the retention of stationary phase is increased, a good chromatographic resolution is achieved. A reduced flow rate of the mobile phase and a high rotational speed of the column favor the retention of the stationary phase inside the HPCCC column. In this study, the flow rate of the mobile phase in the first step and second step of the HPCCC operations was 1 mL/min and the rotational speed was set at 1200 rpm. Moreover, it was observed that a good resolution between the compounds 2 and 3 was achieved when injecting 100 mg of enriched extract.
Different two-phase solvent systems were prepared using n-hexane, ethyl acetate, ethanol, water, and acetic acid in different proportions (Table 1). The prepared solvent systems were investigated for their capacity to provide suitable partition coefficients (K) of the target compounds. In addition, given that the settling time as well as the density difference between the upper and lower phases of each two-phase solvent system are parameters associated with the retention of stationary phase in the column, they were thus estimated and used as selection criteria. For estimating the partition coefficient (Table 1) of the target compound, 2 mg of extract containing the target compounds was dissolved in 2 mL of a given two-phase solvent system (1 mL per each phase). The test tube containing the sample solution was shaken vigorously, and then left, to equilibrate the two phases, for 20 min. Equal volumes of each phase were then analyzed by HPLC-ESI-HRMS to obtain the partition coefficients (K), which were calculated by dividing the peak area of the target compound in the upper phase by the peak area of compound in the lower phase.

[2] = system: Bacillus subtilis; assay: Broth two-fold microdilution; format: cell-based; conditions: B. subtilis CCM1999; Mueller Hinton broth, 300–0.0732 µg/mL (control 32–0.0625), 37 °C 16 h, triplicate; MIC = least concentration showing any inhibition in the growth
Description: Furthermore, compound 1 was evaluated for its antimicrobial activity against five bacterial isolates; S. aureus (CCM3824), B. subtilis (CCM1999), S. sanguinis (CCM4047), P. aeruginosa (CCM1959), E. coli (CCM2024), and eight fungal isolates; C. friedrichii (BCC020_2879), A. fumigatus (BCC020_2845), F. oxysporum (BCC020_2866), T. harzianum (BCC020_0606), B. sorokiniana (BCC020_1571), M. cucumerina (BCC020_2872), C. globosum (BCC020_2527), and A. alternata (BCC020_0609) using broth two-fold microdilution method following the standard protocol. Briefly, for broth microdilution method, the compounds were serially diluted at varying concentrations between 300 and 0.0732 µg/mL in Mueller Hinton broth (for bacteria) and Muller Hinton broth with 2% glucose (for fungi) in 96-well plates. Culture broth (0.1 mL) was added to each well containing the compound. […] MIC95 was determined as the concentration required to inhibit or kill 95% of bacterial isolates spectroscopically at 600 nm. Minimum fungicidal concentration (MFCs) were determined after 48 h incubation by removing 10 µL of the contents from wells showing no visible growth and spreading them on to Sabouraud dextrose agar plates. The plates were then incubated for 72 h and MFCs were determined as the concentrations which killed 95–100% of the inoculum. […]

C/C=C1\NC(=O)[C@H](CO)NC(=O)[C@@H]([C@@H](C)CC)NC(=O)[C@H](Cc2ccccc2)NC(=O)[C@@H]2CCCN2C(=O)CNC(=O)[C@@H](CCC(N)=O)NC(=O)C(O)C(CC(O)CCCCC)NC(=O)[C@@H]2CCCN2C(=O)[C@@H]([C@@H](C)CC)NC(=O)[C@H](CO)NC1=O (stereo partly drawn) [compound 2, muscotoxin A] (cyclo([Dhb]S[d(aIle)]P[X1][dQ]GPF[d(aIle)]S))
Partition Coefficient (K) of Muscotoxins ([1]; solvent system 1, n-Hex–EtOH–H2O 10:5:5, shake test tube, equilibrated 20 min, K = peak area upper phase/lower phase): 0.03 | Partition Coefficient (K) of Muscotoxins ([1]; solvent system 2, n-Hex–EtOAc–EtOH–H2O 9:1:5:5, shaken, 20 min, K = peak area UP/LP): 0.03 | Partition Coefficient (K) of Muscotoxins ([1]; solvent system 3, n-Hex–EtOAc–EtOH–H2O 8:2:5:5, shaken, 20 min, K = peak area UP/LP): 0.01 | Partition Coefficient (K) of Muscotoxins ([1]; solvent system 4, n-Hex–EtOAc–EtOH–H2O 7:3:5:5, shaken, 20 min, K = peak area UP/LP): 0.06 | Partition Coefficient (K) of Muscotoxins ([1]; solvent system 5, n-Hex–EtOAc–EtOH–H2O 6:4:5:5, shaken, 20 min, K = peak area UP/LP): 0.09 | Partition Coefficient (K) of Muscotoxins ([1]; solvent system 6, n-Hex–EtOAc–EtOH–H2O 5:5:5:5, shaken, 20 min, K = peak area UP/LP): 0.01 | Partition Coefficient (K) of Muscotoxins ([1]; solvent system 7, n-Hex–EtOAc–EtOH–H2O 4:5:4:5, shaken, 20 min, K = peak area UP/LP): 0.14 | Partition Coefficient (K) of Muscotoxins ([1]; solvent system 8, n-Hex–EtOAc–EtOH–H2O 3:5:3:5, shaken, 20 min, K = peak area UP/LP): 0.32 | Partition Coefficient (K) of Muscotoxins ([1]; solvent system 9, n-Hex–EtOAc–EtOH–H2O 2:5:2:5, shaken, 20 min, K = peak area UP/LP): 0.97 | Partition Coefficient (K) of Muscotoxins ([1]; solvent system 10, n-Hex–EtOAc–EtOH–H2O 1:5:1:5, shaken, 20 min, K = peak area UP/LP): 0.94 | Partition Coefficient (K) of Muscotoxins ([1]; solvent system 11, n-Hex–EtOAc–EtOH–H2O–AcOH 1:5:1:5:1, shaken, 20 min, K = peak area UP/LP): 1.97 | MIC [2]: 37.5 µg/mL (≈ 31 µM)
